Laboratory results reported in PMC6006164, “Natural cyclopeptide RA-V inhibits the NF-κB signaling pathway by targeting TAK1” (Cell Death & Disease, 2018).
pIC50: −log10 of the molar value.

Assays:
NF-κB signaling pathway = experiment: NF-κB-dependent luciferase reporter (5×κB-luciferase/pTK-Renilla), TNF-α-induced, HEK293T cells; type: cell-based; settings: HEK293T; RA-V 6 h, then 10 ng/mL TNF-α 2 h; three independent experiments; read-out: IC50, NF-κB-dependent luciferase reporter
Procedure: HEK293T or HeLa cells were seeded in 24-well plates and transiently transfected with the 5 × κB-luciferase and pTK-Renilla reporters using Lipofectamine 2000 (Invitrogen) for 18 h. The cells were then incubated with different concentrations of the compounds for the indicated times and subsequently stimulated with 10 ng/mL TNF-α for 2 h. The luciferase activity in the cell lysates was analyzed using the Dual Luciferase Reporter Assay System (Promega). The luciferase reporter assays were performed as previously described.
Supplementary Figure 1. RA-V has the best inhibitory effect on NF-κB signaling pathway among RAs. (a-b) HEK293T cells were transfected with the 5×κB-luciferase and pTK-Renilla reporters. Twenty-four hours after transfection, the cells were incubated with various concentrations of the indicated compounds for 6 h and then treated with 10 ng/ml TNF-α for 2 h before the luciferase activity assays. The data are presented as the means ± S.D. from three independent experiments. […]
Scheme for CB12 synthesis. (c) CB12 inhibited NF-κB reporter activity in a dose-dependent manner. The HEK293T cells were transfected with the 5×κB-luciferase and pTK-Renilla reporters. Twenty-four h after transfection, the cells were treated with various concentrations of CB12 for 6 h and then treated with 10 ng/ml TNF-α for 2 h before the luciferase activity assays. (d) […]
Supplementary Table 3: Screening data of small molecules
Category Parameter Description
Assay Type of assay Cell-based
Target NF-κB signaling pathway
Primary measurement Detection of Firefly luciferase enzyme activities and Renilla Luciferase expression
Key reagents 5 × κB-lucieferase and luciferase assay (Progema)
Assay protocol HEK293T cells were seeded in 24 -well plates and transiently transfected with 20 ng of 5×κB-luciferase and 2 ng of pTK-Renilla reporters using Lipofectamine
2000 (Invitrogen) for 18 h. The cells were then incubated with small molecules (10 μM) for 6 hours, and subsequently stimulated with 10 ng/ml TNF -α for 2 h. Luciferase activity of the cell lysates was analysed by the Dual Luciferase Reported Assay System
(Promega). The Firefly luciferase enzyme activities were determined for NF -κB signaling activities and normalized to Renilla Luciferase expression.
Library Library size approximately 200
Library composition natural and synthetic chemical compounds, including cyclopeptides, quinones and terpenes.
Source State Key Laboratory of Phytochemistry and Plant
Resources in West China, Kunming Institute of Botany, Chinese Academy of Sciences
Screen Format 24-well, Corning
Concentration(s) tested 10 μM
Reagent/ compound dispensing system Manual
Detection instrument and software Synergy 2 (BioTek)
Assay validation/QC Velcade inhibits NF-κB signaling pathway
Normalization The Firefly luciferase enzyme activities were normalized by Renilla Luciferase expression
Post-HTS analysis Hit criteria κB-luc/ Renilla ratio < 0.5 standard deviations from the […]
Hit rate Approximately 15%
Confirmation of hit purity and structure Compounds were verified by HPLC and NMR

HCT116 xenograft tumors = experiment: HCT116 xenograft in nude mice; type: in vivo, female athymic nude BALB/c mice
Procedure: Fig. 7 RA-V inhibits tumor growth and the expression of NF-κB target genes in a nude xenograft model. a–d Inhibition of the growth of HCT116 and HepG2 xenograft tumors by RA-V. Female athymic nude BALB/c mice bearing HCT116 (n = 8) or HepG2 (n = 7) xenograft tumors were intravenously injected with various concentrations of RA-V micelles or control micelles every other day. 5-FU (10 mg/kg) group as positive control. Effects of RA-V on the growth curves of subcutaneoue xenografts of HCT116 (a) and HepG2 (b) and effects on the tumor weight in the HCT116 (c) and HepG2 (d) models. e–f Tumors removed were photographed. g–h The expression of the NF-κB target genes, IL-8, MCP-1, and CXCL-1, in HCT116 (g) and HepG2 (h) tumor tissue from vehicle- and various concentrations of RA-V-treated group was determined by quantitative RT-PCR and normalized to GADPH expression. *, p < 0.05; **, p < 0.01; ***, p < 0.001
In total, 2 × 10^6 HCT116 or 3 × 10^6 HepG2 cells were subcutaneously injected into the right dorsal flank of 6- to 8-week-old female athymic nude BALB/c mice. After tumor volumes reached 100 mm^3, the tumor-bearing mice were randomly divided into several groups. The mice bearing HCT116 (n = 8) or HepG2 xenograft tumors (n = 7) were received the intravenous injection of vehicle micelles or various concentrations of RA-V micelles every other day. 5-FU (10 mg/kg) group as positive control. Body weights and tumor volumes were recorded every other day. Tumor volumes were calculated using the following formula: tumor volume (mm^3) = 0.52 × length × width^2. At the end of the experiments, the mice were killed. Tumor xenografts of each mouse were removed and weighed. Part of each tumor tissue was stored at liquid nitrogen for quantitative RT-PCR analysis. […] Serum alanine transaminase(ALT), aspartate transaminase(AST), and creatine kinase(CK) were determined using relevant kits (Nanjing Jiancheng) according to the manufacturer’s specific instructions.

[1] = HCT116, n = 8, RA-V micelles i.v. every other day, vs control

In the case of RA-V, the pIC50 (NF-κB signaling pathway) was 7.19, the “tumor growth rate (tumor volume)” value (HCT116 xenograft tumors; [1]) was “significantly reduced” and the tumor weight (HCT116 xenograft tumors; [1]) was “obviously lower”. For the same substance, the “expression of IL-8, MCP-1, and CXCL-1 in tumor tissue” value (HCT116 xenograft tumors; HCT116 xenograft, quantitative RT-PCR) was “remarkable decreased”.
